Results taken from publication PMC11859198, “Identification of Furin Protease Small-Molecule Inhibitor with a 1,3-Thiazol-2-ylaminosulfonyl Scaffold” (Pharmaceuticals, 2025).

Target: furin (Homo sapiens, UniProt P09958)
Experiment: fluorogenic furin protease assay (BPS Bioscience kit), IC50 in triplicate
Assay type: biochemical
Details: read-out: Biological Activity ^2 [IC50; μM] ^3 or % Inhibition ^4

Chain of furin (P09958 108-794): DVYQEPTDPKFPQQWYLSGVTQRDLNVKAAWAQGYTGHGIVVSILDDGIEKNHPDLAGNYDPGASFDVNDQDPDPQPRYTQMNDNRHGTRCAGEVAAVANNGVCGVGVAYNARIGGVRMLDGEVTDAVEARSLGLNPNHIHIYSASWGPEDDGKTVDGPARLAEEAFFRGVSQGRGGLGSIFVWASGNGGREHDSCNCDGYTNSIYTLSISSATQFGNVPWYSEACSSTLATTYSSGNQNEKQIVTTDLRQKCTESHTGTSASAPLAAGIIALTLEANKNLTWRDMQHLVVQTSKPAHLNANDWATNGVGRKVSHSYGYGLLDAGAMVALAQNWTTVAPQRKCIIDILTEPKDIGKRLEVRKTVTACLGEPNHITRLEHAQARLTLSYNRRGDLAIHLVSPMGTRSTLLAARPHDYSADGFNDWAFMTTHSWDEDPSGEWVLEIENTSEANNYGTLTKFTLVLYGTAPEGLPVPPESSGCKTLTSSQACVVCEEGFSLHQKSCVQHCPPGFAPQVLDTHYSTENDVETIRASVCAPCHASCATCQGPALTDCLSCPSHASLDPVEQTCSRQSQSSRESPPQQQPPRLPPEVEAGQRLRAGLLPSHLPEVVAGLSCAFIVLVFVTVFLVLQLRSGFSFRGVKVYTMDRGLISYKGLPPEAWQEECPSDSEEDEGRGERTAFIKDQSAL

SMILES: COc1ccccc1/C=C1/SC(=S)N(CCC(=O)Nc2ccc(S(=O)(=O)Nc3nccs3)cc2)C1=O [compound 4, N-[4-(1,3-thiazol-2-ylaminosulfonyl)phenyl]-3-{(E)-5-[(2-methoxyphenyl)methylene]-4-oxo-2-thioxo-1,3-thiazolidin-3-yl}propionamide]
- IC50: 17.6 ± 2.29 µM
